Results taken from patent US5545669A, “Anti-inflammatory compounds” (priority 1994, dated 1996).

How the values were obtained:
[1] = test system: PGE2 release by human monocytes; experiment: Assay (f): stimulated eicosanoid release by human monocytes, Prostaglandin E2; format: cell-based; conditions: Monocyte, 0.25 h, A23187 1 μM, 15 min
Description: (§1) Human Monocyte Isolation. Leukocyte-rich leukopaks obtained from Biological Specialties (Lansdale, Pa.) were collected from male volunteers who were not taking antiinflammatory drugs. Leukopaks were centrifuged (90×g for 15 min) twice to remove the platelet-rich plasma. The cell pellet was washed by centrifugation and resuspended in HBSS without Ca^2+ or Mg^2+. Histopaque 1077 was layered under the cell suspension and centrifuged at 400×g for 30 min to obtain the buffy coat. The interfacial buffy coat, containing monocytes and lymphocytes, was removed and saved. The buffy coat was washed twice with HBSS Without Ca^2+ or Mg^2+ by centrifugation. The cell pellet (4-6×10^8 cells/30 mls) was resuspended in iso-osmotic media (RPMI-1640, 10% heat inactivated fetal bovine serum (FBS), 0.2 mM L-glutamine, 2.5 mM HEPES) and layered over an equal volume of 46% Percol mixture (10X PBS/Percol; 9.25/0.75) and 54% iso-osmotic media and centrifuged for 30 min at 1000×g (Marshall and Roshak, Biochem. Cell Biol. 71: 331-339, 1993). The monocyte population located at the interface of the Percoll gradient was removed and washed twice in HBSS without Ca^2+ or Mg^2+.
(§2) Measurement of Stimuli-Induced Eicosanoid Release Monocytes (5×10^6 /ml) were incubated as a suspension in serum-free RPMI-1640 medium containing the vehicle DMSO (<1%) or drug for 30 min at 27° C. after which vehicle or stimuli was added for the indicated time. The stimulating agent is solubilized in DMSO and appropriate vehicle controls were included in all experiments. The amount of stimuli was chosen from the linear portion of a concentration versus product curve usually representing 60-80% maximal stimulation over the indicated incubation time at 37° C. (A23187, 1 μM,(15 min). The reaction was terminated by reduction of pH through addition of citric acid and centrifugation (10 min, 400×g, 4° C.). Cell viability was monitored before and after experiments using trypan blue exclusion. The cell-free media was decanted and stored at -70° C. until analyzed. Prostaglandin E2 and LTC4 were directly measured in cell-free media using enzyme immunoassay (EIA) kits purchased from Caymen Chemical Co. (Ann Arbor, Mich.). Sample or standard dilutions were made with appropriate media and analyzed in triplicate. Results were obtained by extrapolation from a standard curve prepared in the media and expressed as pg or ng/ml of sample.

[2] = test system: LTC4 release by human monocytes; experiment: Assay (f): stimulated eicosanoid release by human monocytes, LTC4; format: cell-based; conditions: Monocyte, 0.25 h, A23187 1 μM, 15 min
Description: as §1, §2

[3] = test system: Arachidonic acid induced ear inflammation; experiment: Assay (h): Arachidonic acid induced ear inflammation (ear edema and MPO); format: in vivo, mouse; conditions: for effect in the AA ear model (in words): at concentrations which were effective in the TPA ear model
Description: (§3) Male Balb/c inbred mice were obtained from Charle River Breeding Laboratories (Kingston, N.Y.). Within a single experiment mice (22-25 g) were age-matched. These in vivo experiments typically involved use of 5-6 animals/group.
(§4) On the day of the assay, partially thawed ear tissues were minced and then homogenized (10% w/v) with a Tissumizer homogenizer (Tekmar Co.) in 50 mM phosphate buffer (pH 6) containing 0.5% HTAB. The tissue homogenates were taken through three cycles of freeze-thaw, followed by brief sonication (10 sec). The method of Bradley et al. was used with modifications as described. […] Supernatant MPO activity was quantified kinetically (change in absorbance measured over 3 min, sampled at 15-sec intervals) using a Beckman DU-7 spectrophotometer and a Kinetics Analysis package (Beckman Instruments, Inc.). One unit of MPO activity is defined as that degrading one micromole of peroxide per minute at 25° C.
Arachidonic acid is dissolved in acetone (ling/ear) to the left ear of BALB/c male mice. The thickness of both ears was measured with a constant pressure thickness guage 1 hour after treatment and the data expressed as the change in thickness between treated and untreated ears. Test compounds or vehicle are given at the time of AA applciation. The inflammatory cell infiltration is measured by MPO activity as described above in the TPA ear edema assay. After the edema measurements are made, the inflamed ears are removed and assayed for MPO activity.

[4] = test system: TPA-induced Mouse Ear Inflammation; experiment: Assay (g): TPA-induced mouse ear inflammation (ear edema and MPO); format: in vivo; conditions: for TPA % change in edema / change in MPO for TPA model: topically administered, doses 0.2 (dexamethasone), 0.1 (scalaradial), 0.3 (WY 50,295), dose unit not given
Description: as §3
TPA (12-0-tetradecanoylphorbol 13-acetate) (Sigma Chemical Company) in acetone (4 mg/20 ml) was applied to the inner and outer surfaces of the left ear of BALB/c male mice. The thickness of both ears was then measured with a dial micrometer (Mitutoyo, Japan) at both 2 and 4 hours after treatment, and the data expressed as the change in thickness (10^-3 cm) between treated and untreated ears. […] After measuring the edema, the inflammed left ears were removed and stored at -70° C. until they were assayed for MPO (myeloperoxidase) activity where appropriate.
as §4
Statistical analysis was done using Student's "t" test.

[5] = topically administered, doses 0.2 (dexamethasone), 0.1 (scalaradial), 0.3 (WY 50,295), dose unit not given

O=C(O)c1ccccc1Oc1ccccc1NS(=O)(=O)c1cc(C(F)(F)F)cc(C(F)(F)F)c1 [Example 10, 2-[2-[3,5-Bis(trifluoromethyl)phenylsulfonamido]phenoxy]benzoic acid]
IC50 [1]: > 100000 nM | IC50 [2]: 1000 nM

C[C@H](C(=O)O)c1ccc2cc(OCc3ccc4ccccc4n3)ccc2c1 [WY 50,295]
effect in the AA ear model (in words) [3]: strongly inhibits inflammation | AA change in edema [3, 5]: -50% | TPA % change in edema [4]: -18% | change in MPO for TPA model [4]: -36

Cc1ccc(Oc2ccccc2C(=O)O)c(NS(=O)(=O)c2cc(C(F)(F)F)cc(C(F)(F)F)c2)c1 [Example 12, 2-[2-[3,5-bis(Trifluoromethyl)phenylsulfonamido]-4-methylphenoxy]benzoic acid]
IC50 [1]: > 30000 nM | IC50 [2]: 1000 nM

CC(=O)O[C@H]1C[C@@H]2[C@@]3(C)CCCC(C)(C)[C@@H]3CC[C@@]2(C)[C@@H]2CC=C(C=O)[C@H](C=O)[C@@]12C [scalaradial]
effect in the AA ear model (in words) [3]: little or no effect | AA change in edema [3, 5]: -11% | TPA % change in edema [4]: -46%

C[C@@H]1C[C@H]2[C@@H]3CCC4=CC(=O)C=C[C@]4(C)[C@@]3(F)[C@@H](O)C[C@]2(C)[C@@]1(O)C(=O)CO [dexamethasone]
effect in the AA ear model (in words) [3]: little or no effect | AA change in edema [3, 5]: -10% | change in MPO for AA [3, 5]: 0 | TPA % change in edema [4]: -50% | change in MPO for TPA model [4]: -54

CCC(C)(C)c1ccc(Oc2ccc(C(F)(F)F)cc2NS(=O)(=O)c2cc(C(F)(F)F)cc(C(F)(F)F)c2)c(C(=O)O)c1 [Example 17, 2-[2-[3,5-Bis(trifluoromethyl)phenyl]sulfonamido-4-trifluoromethylphenoxy]-5-(1,1-dimethylpropyl)benzoic acid]
IC50 [1]: > 3000 nM | IC50 [2]: 50 nM

CN(c1cc(C(F)(F)F)ccc1Oc1ccccc1C(=O)O)S(=O)(=O)c1cc(C(F)(F)F)cc(C(F)(F)F)c1 [Example 27, 2-[2-[3,5-bis(Trifluoromethyl)phenyl-N-methylsulfonamido]-4-trifluoromethylphenoxy]benzoic acid]
inhibition in the MPO assay ([4]; mouse ear inflammation, MPO): positive inhibition | response in the Edema aspects of this animal model ([4]; mouse ear inflammation, edema): not a significant response

CCCCCCCCS(=O)(=O)Nc1ccccc1Oc1ccccc1C(=O)O [Example 11, 2-[2-(Octylsulfonamido)phenoxy]benzoic acid]
IC50 [1]: 10000 to 20000 nM | IC50 [2]: 1000 nM

O=C(O)c1ccccc1Oc1ccc(C(F)(F)F)cc1NS(=O)(=O)c1ccc2ccccc2c1 [Example 3, 2-[2-(2-Naphthylsulfonamido)-4-trifluoromethylphenoxy]benzoic acid]
IC50 [1]: > 30000 nM | IC50 [2]: 2000 nM
